Reference: patent US8748421B2, “Triazine compounds as P13 kinase and MTOR inhibitors” (Wyeth LLC, priority 2009, dated 2014)

Assays:
PI3K-alpha = PI3K-alpha (Homo sapiens, UniProt P42336); assay: PI3K-alpha fluorescence polarization assay; settings: read-out: IC50 PI3Kα
PI3K-gamma = PI3K-gamma (Homo sapiens, UniProt P48736); assay: PI3K-gamma fluorescence polarization assay; settings: read-out: IC50 PI3Kγ
Sequence of PI3K-gamma (P48736 whole entry, species assumed): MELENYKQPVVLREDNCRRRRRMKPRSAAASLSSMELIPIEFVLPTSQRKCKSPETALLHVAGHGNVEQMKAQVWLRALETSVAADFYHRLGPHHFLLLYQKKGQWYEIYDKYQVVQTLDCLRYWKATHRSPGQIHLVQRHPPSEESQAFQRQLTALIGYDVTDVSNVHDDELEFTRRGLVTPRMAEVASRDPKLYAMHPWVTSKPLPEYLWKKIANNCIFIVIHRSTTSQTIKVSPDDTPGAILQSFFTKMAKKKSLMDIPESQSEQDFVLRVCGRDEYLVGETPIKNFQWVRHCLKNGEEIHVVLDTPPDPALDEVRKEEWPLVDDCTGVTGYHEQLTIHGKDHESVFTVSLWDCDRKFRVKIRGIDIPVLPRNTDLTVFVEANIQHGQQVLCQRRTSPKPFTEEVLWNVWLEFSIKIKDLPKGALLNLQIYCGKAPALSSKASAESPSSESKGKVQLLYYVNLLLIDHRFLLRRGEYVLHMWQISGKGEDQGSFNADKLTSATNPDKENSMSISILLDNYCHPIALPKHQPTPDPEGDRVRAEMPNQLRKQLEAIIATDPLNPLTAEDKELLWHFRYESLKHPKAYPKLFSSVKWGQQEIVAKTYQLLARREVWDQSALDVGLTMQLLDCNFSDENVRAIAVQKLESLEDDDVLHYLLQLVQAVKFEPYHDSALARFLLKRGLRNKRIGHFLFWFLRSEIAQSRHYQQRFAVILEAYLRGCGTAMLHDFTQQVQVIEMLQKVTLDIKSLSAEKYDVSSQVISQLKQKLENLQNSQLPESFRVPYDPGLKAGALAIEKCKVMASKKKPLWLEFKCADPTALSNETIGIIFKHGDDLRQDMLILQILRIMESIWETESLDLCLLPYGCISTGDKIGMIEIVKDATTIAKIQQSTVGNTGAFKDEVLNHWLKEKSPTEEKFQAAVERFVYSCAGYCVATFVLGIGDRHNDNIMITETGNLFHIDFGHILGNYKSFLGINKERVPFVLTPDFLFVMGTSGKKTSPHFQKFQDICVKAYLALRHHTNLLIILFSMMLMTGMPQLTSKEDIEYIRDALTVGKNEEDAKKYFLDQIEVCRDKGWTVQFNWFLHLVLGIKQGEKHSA

Sequence of PI3K-alpha (P42336 whole entry, species assumed): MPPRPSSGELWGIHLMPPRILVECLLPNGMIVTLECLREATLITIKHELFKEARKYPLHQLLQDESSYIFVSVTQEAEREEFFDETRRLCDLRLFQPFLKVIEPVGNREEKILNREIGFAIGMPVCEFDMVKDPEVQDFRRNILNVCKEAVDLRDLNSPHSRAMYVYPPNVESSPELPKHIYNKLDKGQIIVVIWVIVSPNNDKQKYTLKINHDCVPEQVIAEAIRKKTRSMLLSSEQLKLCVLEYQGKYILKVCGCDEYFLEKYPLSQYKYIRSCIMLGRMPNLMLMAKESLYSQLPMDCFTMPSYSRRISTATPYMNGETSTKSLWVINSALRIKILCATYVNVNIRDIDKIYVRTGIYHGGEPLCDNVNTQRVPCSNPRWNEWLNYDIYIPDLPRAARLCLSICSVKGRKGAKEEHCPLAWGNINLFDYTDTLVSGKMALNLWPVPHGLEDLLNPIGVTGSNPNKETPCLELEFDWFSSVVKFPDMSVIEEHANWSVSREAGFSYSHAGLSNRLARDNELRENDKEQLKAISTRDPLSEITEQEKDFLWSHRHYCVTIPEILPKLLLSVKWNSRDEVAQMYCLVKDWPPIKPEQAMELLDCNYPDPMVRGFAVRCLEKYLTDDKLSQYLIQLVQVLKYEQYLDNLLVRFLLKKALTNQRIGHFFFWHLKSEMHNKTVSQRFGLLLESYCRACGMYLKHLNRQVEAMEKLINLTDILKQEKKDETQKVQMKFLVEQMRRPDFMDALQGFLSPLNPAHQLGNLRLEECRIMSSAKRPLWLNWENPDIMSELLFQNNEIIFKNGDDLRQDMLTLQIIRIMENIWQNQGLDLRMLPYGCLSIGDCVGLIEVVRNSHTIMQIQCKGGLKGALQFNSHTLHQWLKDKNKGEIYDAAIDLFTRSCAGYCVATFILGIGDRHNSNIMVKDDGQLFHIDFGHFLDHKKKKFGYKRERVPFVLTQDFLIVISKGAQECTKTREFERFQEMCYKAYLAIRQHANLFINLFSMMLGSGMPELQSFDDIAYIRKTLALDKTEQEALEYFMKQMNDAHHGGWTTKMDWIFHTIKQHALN
Sequence of PI3K-alpha (P27986 whole entry partner, species assumed): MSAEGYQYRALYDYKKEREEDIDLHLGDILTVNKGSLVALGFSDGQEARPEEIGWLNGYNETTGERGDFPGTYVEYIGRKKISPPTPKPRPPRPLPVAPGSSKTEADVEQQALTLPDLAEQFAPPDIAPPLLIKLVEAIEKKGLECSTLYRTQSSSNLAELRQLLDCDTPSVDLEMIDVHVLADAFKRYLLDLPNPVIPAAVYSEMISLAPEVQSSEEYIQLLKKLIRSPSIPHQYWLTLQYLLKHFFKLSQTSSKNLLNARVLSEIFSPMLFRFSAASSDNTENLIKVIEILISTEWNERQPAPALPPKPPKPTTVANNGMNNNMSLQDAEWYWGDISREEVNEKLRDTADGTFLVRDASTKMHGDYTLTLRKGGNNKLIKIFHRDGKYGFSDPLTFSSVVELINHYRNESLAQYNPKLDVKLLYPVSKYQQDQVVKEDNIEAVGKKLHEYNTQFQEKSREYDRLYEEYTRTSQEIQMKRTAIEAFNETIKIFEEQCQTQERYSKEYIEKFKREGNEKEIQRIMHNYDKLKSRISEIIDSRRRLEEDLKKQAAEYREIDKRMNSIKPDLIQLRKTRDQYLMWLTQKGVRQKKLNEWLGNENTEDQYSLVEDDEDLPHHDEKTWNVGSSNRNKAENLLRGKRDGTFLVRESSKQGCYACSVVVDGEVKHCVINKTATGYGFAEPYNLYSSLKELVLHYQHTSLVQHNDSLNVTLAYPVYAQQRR

SMILES | IC50 (PI3K-alpha) [nM] | IC50 (PI3K-gamma) [nM]
CC1CNCCN1C(=O)c1ccc(NC(=O)Nc2ccc(-c3nc(N4CCOCC4)nc(N4CCOCC4)n3)cc2)cc1 (stereo not drawn) [Example 845, 1-{4-[4,6-di(morpholin-4-yl)-1,3,5-triazin-2-yl]phenyl}-3-{4-[(2-methylpiperazin-1-yl)carbonyl]phenyl}urea] | 0.25 | 2.75
CC(C)N1CCCN(c2nc(-c3ccc(NC(=O)Nc4ccc(C(=O)N5CCNCC5)cc4)cc3)nc(N3CCOCC3)n2)CC1 [Example 846, 1-(4-{4-(morpholin-4-yl)-6-[4-(propan-2-yl)-1,4-diazepan-1-yl]-1,3,5-triazin-2-yl}phenyl)-3-[4-(piperazin-1-ylcarbonyl)phenyl]urea] | 3.5 | 22.5
CC(C)N1CCCN(c2nc(-c3ccc(NC(=O)Nc4ccc(C(=O)N5CC[C@@H](N(C)C)C5)cc4)cc3)nc(N3CCOCC3)n2)CC1 [Example 847, 1-(4-{[(3R)-3-(dimethylamino)pyrrolidin-1-yl]carbonyl}phenyl)-3-(4-{4-(morpholin-4-yl)-6-[4-(propan-2-yl)-1,4-diazepan-1-yl]-1,3,5-triazin-2-yl}phenyl)urea] | 10.5 | 87.5
CN1CCN(C(=O)c2ccc(NC(=O)Nc3ccc(-c4nc(N5CCOCC5)nc(N5CCOCC5)n4)cc3)cc2)CC1(C)C [Example 848, 1-{4-[4,6-di(morpholin-4-yl)-1,3,5-triazin-2-yl]phenyl}-3-{4-[(3,3,4-trimethylpiperazin-1-yl)carbonyl]phenyl}urea] | 1.05 | 6
C[C@@H]1CN(C(=O)c2ccc(NC(=O)Nc3ccc(-c4nc(N5CCOCC5)nc(N5CCOCC5)n4)cc3)cc2)CCN1 [Example 849, 1-{4-[4,6-di(morpholin-4-yl)-1,3,5-triazin-2-yl]phenyl}-3-(4-{[(3R)-3-methylpiperazin-1-yl]carbonyl}phenyl)urea] | 0.3 | 3.17
C[C@@H]1CN(C(=O)c2ccc(NC(=O)Nc3ccc(-c4nc(N5CCOCC5)nc(N5CCOCC5)n4)cc3)cc2)CCN1C [Example 850, 1-(4-{[(3R)-3,4-dimethylpiperazin-1-yl]carbonyl}phenyl)-3-{4-[4,6-di(morpholin-4-yl)-1,3,5-triazin-2-yl]phenyl}urea] | 0.65 | 6.1
C[C@@H]1CN(C(=O)c2ccc(NC(=O)Nc3ccc(-c4nc(N5CCOCC5)nc(N5CCOCC5)n4)cc3)cc2)CCN1C1CCC1 [Example 851, 1-(4-{[(3R)-4-cyclobutyl-3-methylpiperazin-1-yl]carbonyl}phenyl)-3-{4-[4,6-di(morpholin-4-yl)-1,3,5-triazin-2-yl]phenyl}urea] | 0.85 | 5.6
CC(C)N1CCN(C(=O)c2ccc(NC(=O)Nc3ccc(-c4nc(N5CCOCC5)nc(N5CCOCC5)n4)cc3)cc2)C[C@H]1C [Example 852, 1-{4-[4,6-di(morpholin-4-yl)-1,3,5-triazin-2-yl]phenyl}-3-(4-{[(3R)-3-methyl-4-(propan-2-yl)piperazin-1-yl]carbonyl}phenyl)urea] | 0.4 | 5.55
C[C@H]1CN(C(=O)c2ccc(NC(=O)Nc3ccc(-c4nc(N5CCOCC5)nc(N5CCOCC5)n4)cc3)cc2)CCN1 [Example 853, 1-{4-[4,6-di(morpholin-4-yl)-1,3,5-triazin-2-yl]phenyl}-3-(4-{[(3S)-3-methylpiperazin-1-yl]carbonyl}phenyl)urea] | 0.3 | 5.05
CC(C)N1CCCN(c2nc(-c3ccc(NC(=O)Nc4ccc(C(=O)N(C)CCN(C)C)cc4)cc3)nc(N3CCOC[C@@H]3C)n2)CC1 [Example 854, N-[2-(dimethylamino)ethyl]-N-methyl-4-{[(4-{4-[(3S)-3-methylmorpholin-4-yl]-6-[4-(propan-2-yl)-1,4-diazepan-1-yl]-1,3,5-triazin-2-yl}phenyl)carbamoyl]amino}benzamide] | 8.84 | 164
CC(C)N1CCCN(c2nc(-c3ccc(NC(=O)Nc4ccc(C(=O)N5CCN(C)CC5)cc4)cc3)nc(N3CCOC[C@@H]3C)n2)CC1 [Example 855, 1-(4-{4-[(3S)-3-methylmorpholin-4-yl]-6-[4-(propan-2-yl)-1,4-diazepan-1-yl]-1,3,5-triazin-2-yl}phenyl)-3-{4-[(4-methylpiperazin-1-yl)carbonyl]phenyl}urea] | 54 | 864
CC(C)N1CCCN(c2nc(-c3ccc(NC(=O)Nc4ccc(C(=O)N5CC[C@H](N(C)C)C5)cc4)cc3)nc(N3CCOC[C@@H]3C)n2)CC1 [Example 856, 1-(4-{[(3S)-3-(dimethylamino)pyrrolidin-1-yl]carbonyl}phenyl)-3-(4-{4-[(3S)-3-methylmorpholin-4-yl]-6-[4-(propan-2-yl)-1,4-diazepan-1-yl]-1,3,5-triazin-2-yl}phenyl)urea] | 28.5 | 532
CC(C)N1CCCN(c2nc(-c3ccc(NC(=O)Nc4ccc(C(=O)NCCCN(C)C)cc4)cc3)nc(N3CCOCC3)n2)CC1 [Example 857, N-[3-(dimethylamino)propyl]-4-{[(4-{4-(morpholin-4-yl)-6-[4-(propan-2-yl)-1,4-diazepan-1-yl]-1,3,5-triazin-2-yl}phenyl)carbamoyl]amino}benzamide] | 10 | 146
CC(C)N1CCCN(c2nc(-c3ccc(NC(=O)Nc4ccc(C(=O)N(C)CCN(C)C)cc4)cc3)nc(N3CCOCC3)n2)CC1 [Example 858, N-[2-(dimethylamino)ethyl]-N-methyl-4-{[(4-{4-(morpholin-4-yl)-6-[4-(propan-2-yl)-1,4-diazepan-1-yl]-1,3,5-triazin-2-yl}phenyl)carbamoyl]amino}benzamide] | 5 | 134
CC(C)N1CCCN(c2nc(-c3ccc(NC(=O)Nc4ccc(C(=O)N5CCOCC5)cc4)cc3)nc(N3CCOCC3)n2)CC1 [Example 859, 1-[4-(morpholin-4-ylcarbonyl)phenyl]-3-(4-{4-(morpholin-4-yl)-6-[4-(propan-2-yl)-1,4-diazepan-1-yl]-1,3,5-triazin-2-yl}phenyl)urea] | 17.9 | 240
COCCNC(=O)c1ccc(NC(=O)Nc2ccc(-c3nc(N4CCOCC4)nc(N4CCCN(C(C)C)CC4)n3)cc2)cc1 [Example 860, N-(2-methoxyethyl)-4-{[(4-{4-(morpholin-4-yl)-6-[4-(propan-2-yl)-1,4-diazepan-1-yl]-1,3,5-triazin-2-yl}phenyl)carbamoyl]amino}benzamide] | 57 | 434
CC(C)N1CCCN(c2nc(-c3ccc(NC(=O)Nc4ccc(C(=O)N5CCCNCC5)cc4)cc3)nc(N3CCOCC3)n2)CC1 [Example 861, 1-[4-(1,4-diazepan-1-ylcarbonyl)phenyl]-3-(4-{4-(morpholin-4-yl)-6-[4-(propan-2-yl)-1,4-diazepan-1-yl]-1,3,5-triazin-2-yl}phenyl)urea] | 4 | 56
CC(C)N1CCCN(C(=O)c2ccc(NC(=O)Nc3ccc(-c4nc(N5CCOCC5)nc(N5CCCN(C(C)C)CC5)n4)cc3)cc2)CC1 [Example 862, 1-(4-{4-(morpholin-4-yl)-6-[4-(propan-2-yl)-1,4-diazepan-1-yl]-1,3,5-triazin-2-yl}phenyl)-3-(4-{[4-(propan-2-yl)-1,4-diazepan-1-yl]carbonyl}phenyl)urea] | 23.5 | 154
